Values of other authors as cited in patent US20090317456A1, “USE OF ONCOLYTIC VIRUSES AND ANTIANGIOGENIC AGENTS IN THE TREATMENT OF CANCER” (priority 2006, published 2009).

What was measured:
[1] = tested on: VEGFR tyrosine kinases, including VEGFR-3; conditions: all known VEGFR tyrosine kinases
[2] = tested on: metastatic colorectal cancer; conditions: bevacizumab added to FOLFOX or FOLFIRI; prolonged from 12 months without

Row | Molecule | inhibition of PDGFR (PDGFR) | inhibition of VEGFR tyrosine kinases [1] | median survival [2] [months]
1 | Clc1ccc(Nc2nnc(Cc3ccncc3)c3ccccc23)cc1 [PTK 787/ZK 222584] | nanomolar range | lower nanomolar range | 
2 | bevacizumab: humanized anti-VEGF monoclonal antibody (Avastin, Genentech) |  |  | 20
